Laboratory results reported in publication PMC8850660, “The P300 acetyltransferase inhibitor C646 promotes membrane translocation of insulin receptor protein substrate and interaction with the insulin receptor” (The Journal of Biological Chemistry, 2022).

Tests used:
[1] = target: T1, insulin receptor (InsR Kinase Assay) (Homo sapiens, UniProt P06213); test: InsR kinase assay, ADP-Glo (ADP production); assay type: biochemical; conditions: 50 μM ATP, substrate peptide, room temperature; turnover to ADP only
T1 construct: commercial kinase from InsR Kinase Assay (Promega)

[2] = target: T2, IRβ (unphosphorylated beta subunit of insulin receptor) (Homo sapiens, UniProt P06213); test: surface plasmon resonance (Biacore T200), IRβ immobilised on CM5; assay type: binding
T2 construct: gene INSR; beta subunit, commercial recombinant protein; unphosphorylated; immobilised on CM5 chip

[3] = target: T1, insulin receptor (InsR Kinase Assay); test: InsR kinase assay, ADP-Glo (ADP production); assay type: biochemical; conditions: activator; 50 μM ATP, substrate peptide, room temperature, 60 min

T1 sequence (P06213 1011-1382 limits assumed): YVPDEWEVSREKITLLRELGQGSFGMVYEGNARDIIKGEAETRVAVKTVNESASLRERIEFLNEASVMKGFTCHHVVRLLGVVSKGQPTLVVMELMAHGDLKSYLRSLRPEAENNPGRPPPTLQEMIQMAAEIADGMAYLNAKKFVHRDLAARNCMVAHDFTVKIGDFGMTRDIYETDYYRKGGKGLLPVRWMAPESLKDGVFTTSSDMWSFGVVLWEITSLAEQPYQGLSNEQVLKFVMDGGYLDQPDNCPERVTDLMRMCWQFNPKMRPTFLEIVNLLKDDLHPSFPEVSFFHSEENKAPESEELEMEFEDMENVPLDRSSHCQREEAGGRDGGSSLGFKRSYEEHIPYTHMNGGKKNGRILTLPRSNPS
T2 sequence (P06213 763-1382 limits assumed): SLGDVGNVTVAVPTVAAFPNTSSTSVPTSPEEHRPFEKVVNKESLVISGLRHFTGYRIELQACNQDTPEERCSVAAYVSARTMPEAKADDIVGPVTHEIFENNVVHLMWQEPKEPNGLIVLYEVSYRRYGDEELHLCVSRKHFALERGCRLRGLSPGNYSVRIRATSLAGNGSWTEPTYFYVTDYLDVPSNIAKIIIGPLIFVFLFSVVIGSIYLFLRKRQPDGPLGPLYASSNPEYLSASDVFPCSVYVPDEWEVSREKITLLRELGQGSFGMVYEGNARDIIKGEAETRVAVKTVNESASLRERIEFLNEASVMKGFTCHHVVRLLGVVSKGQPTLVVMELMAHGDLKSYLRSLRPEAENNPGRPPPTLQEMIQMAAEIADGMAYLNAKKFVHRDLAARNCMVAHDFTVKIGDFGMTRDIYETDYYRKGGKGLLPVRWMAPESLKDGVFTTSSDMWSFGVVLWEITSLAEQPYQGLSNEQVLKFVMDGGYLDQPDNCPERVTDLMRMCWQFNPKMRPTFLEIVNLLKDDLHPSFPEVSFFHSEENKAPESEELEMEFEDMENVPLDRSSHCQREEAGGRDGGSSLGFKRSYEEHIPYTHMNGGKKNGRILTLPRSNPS

| SMILES | InsR kinase assay, ADP-Glo (ADP production) [1] | Kd [2] [µM] | % increase of kinase activity at 100 nM [3] [%] |
| --- | --- | --- | --- |
| Nc1ncnc2c1ncn2[C@@H]1O[C@H](COP(=O)(O)OP(=O)(O)OP(=O)(O)O)[C@@H](O)[C@H]1O [ATP] | found a linear curve of ADP production (consumption of ATP by insulin receptor) | – | – |
| CC1=NN(c2ccc(C(=O)O)cc2)C(=O)C1=Cc1ccc(-c2cc(C)c(C)cc2[N+](=O)[O-])o1 [C646] | – | 4.34 | 50 |
